The results in this text go back to patent publication US11124847B1, “Systems and methods for assessing perturbations in cellular differentiation using reporter cell lines” (priority 2017, dated 2021).

The test system of this experiment is hNPC. The experiment can be described thus: Immunofluorescence staining and high-content cell analysis of differentiation markers in hNPCs differentiated after 24 hour neurotoxin treatment. The conditions noted are these: for level of GFAP (glial marker): hNPC treated 24 hours. It is filed as cell-based, human. From the text:
In an example, high-content cell analysis from cells grown in each well in a 96-well plate was sufficient to detect multiple markers via antibody staining and to be normalized to the DAPI signal, a common baseline measure of DNA content. […] In this example, hNPC are indicated by NESTIN (NES) and SRY-Box 2 (SOX2). Glial Fibrillary Acidic Protein (GFAP) is used as a marker of glial cells (both astrocytes and radial glia), and the neuron-specific class III β-tubulin (TUJ1) is used to indicate neurons. Expression of both GFAP and TUJ1 increased at 21 days and 50 days following differentiation, while both SOX2 and NES decreased at 21 days. Levels of SOX2 expression returned to baseline following 50 days.
A broad range of doses for each toxin was selected to determine the dose response and capture the full range to which a developing human brain may be exposed. Cultured hNPC's were treated for 24 hours to avoid complications associated with non-specific toxicity that may occur with chronic treatment, and because we were interested in whether early, acute exposure produces long-term effects detectable in our assay.

Regarding `CC(C)(c1ccc(O)cc1)c1ccc(O)cc1` [BPA, bisphenol A], the “level of GFAP (glial marker)” value (21D time point, low to moderate doses) is “increase” and the “level of GFAP (glial marker)” value (50D time point, low to moderate doses) is reported as “increase”.

Regarding `C[N+]([O-])=NCO` [MAM, methylazoxymethanol], the “level of GFAP (glial marker)” value reads like this: (21D time point, increasing doses, vs DMSO control) “striking increase”; (50D time point, vs DMSO control) “general decrease”. Moreover, the “hNPC markers (NESTIN and SOX2)” value (24 hours, across doses) is on record as “clear dose-dependent increase”. Further, the “hNPC-GLIA population (markers of hNPC and glial cells)” value (21 days, across increasing doses) was “significant increase”; the “hNPC-GLIA population (markers of hNPC and glial cells)” value (50 days) is recorded as “decreased”. Also, the “neuronal population (NEURON)” value (21 days, as a function of increasing dose) is “striking decrease” and the “neuronal population (NEURON)” value (50 days) is listed as “increased”.

Consider `CCCC(CCC)C(=O)O` [VPA, valproic acid], for which the “level of GFAP (glial marker)” value (across differentiation time points, compared with MAM and BPA) is reported as “more modest effects”.
